# Source: PMC4788259 (PLoS Neglected Tropical Diseases, 2016)
# Read-outs that look alike come from different tables or passages of the source.
# Assays:
# [1] = tested on: E. multilocularis germinal layer cells; experiment: CellTiter-Glo viability assay on germinal layer cell cultures; assay type: cell-based; conditions: Echinococcus multilocularis, 120 h, 5 days, read-out: E.m. GL cells (IC50)
# Description: To assess the effects of MMV665807 on the viability of parasite cells, germinal layer cells were extracted according to Spiliotis et al. After overnight aggregate formation, 15 units of cells were distributed to a black 384 well plate (Nunc, Thermo Scientific, Reinach, Switzerland) in 12.5 μL medium. A concentration series (final concentrations of 3, 1, 0.3, 0.1, 0.03, 0.01 μM) of MMV665807, MMV665794 and mefloquine were prepared in medium and added 1:2 to the cells. For mefloquine, the concentration range was adjusted in a subsequent setup up to 100 μM. As negative control, DMSO was added accordingly. After 5 days of culture at 37°C under humid nitrogen atmosphere, 25 μL CellTiter-Glo (Promega, Dübendorf, Switzerland) including 1% TritonX-100 was added. Plates were incubated for 15 minutes on a shaker at room temperature and complete disruption of all cell aggregates was checked for before measurement of luminescence on a 2300 Enspire multilabel reader (Perkin-Elmer). Mean values and standard deviations were calculated and DMSO values set to 100% viability. The IC50 value was calculated in Microsoft Excel 2010 after logit-log transformation and averages as well as standard deviations of four independent setups were calculated.
# [2] = tested on: E. multilocularis metacestodes; conditions: PGI assay; cited from earlier work
# [3] = tested on: E. multilocularis metacestode vesicles; experiment: microbe, parasite or virus in culture; conditions: Echinococcus multilocularis, 288 h, read-out: mean viability
# [4] = tested on: newly transformed schistosomula; set-up: method as in PMID 24416463; conditions: in vitro; read-out: IC50 against newly transformed schistosomula; cited from earlier work
# [5] = tested on: Reuber rat hepatoma (RH) cells; experiment: alamarBlue viability assay on RH cells; assay type: cell-based; conditions: 120 h, 5 days
# Description: (§1) For testing growth inhibitory effects on confluent host cells, cells were seeded in 96-well plates (10,000 cells per well for HFF and 50,000 cells per well for RH cells), in DMEM containing FBS (10%) and antibiotics (100 U penicillin, 100 μg streptomycin and 0.25 μg amphotericin B per mL medium) and were cultured overnight at 37°C, 5% CO2. Thereafter the drugs (10 μM) were added and diluted in a serial 1:2 dilutions down to 20 nM. The concentration range was further adjusted in subsequent setups. For testing growth inhibitory effects on proliferating cells, cells were seeded at 1,000 (HFF) and 5,000 (RH) cells per well, and were allowed to attach for 5 hours at 37°C before addition of the drugs. After 5 days of culture, cell viability was assessed by alamarBlue assay.
# [6] = tested on: E. multilocularis metacestodes; experiment: PGI assay: phosphoglucose isomerase release from damaged metacestodes; assay type: cell-based, Echinococcus multilocularis; conditions: PGI assay, 10-0.01 μM, 5 days
# Outline: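 E. multilocularis metacestode vesicles (strain H95, grown in BALB/c mice, 2–4 mm diameter) were exposed in vitro to compounds for 5 days. Damage was read as phosphoglucose isomerase released into the medium. Initial screening used 10 μM in single wells, with 0.1% DMSO as negative control. EC50 values were derived from this read-out.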
# [7] = tested on: human foreskin fibroblasts (HFF); experiment: alamarBlue viability assay on HFF; assay type: cell-based; conditions: Fibroblast, 120 h, 5 days
# Description: as §1
# adult worms = tested on: adult worms; set-up: method as in PMID 24416463; conditions: in vitro; read-out: IC50 against adult worms; cited from earlier work
smiles,measurement,setting,value
"OC(c1cc(C(F)(F)F)nc2c(C(F)(F)F)cccc12)C1CCCCN1 (stereo not shown) [Mefloquine, mefloquine, reference compound]",IC50,[1],13.8 ± 0.33 µM
same,EC50,[2],> 30 µM
same,viability at 0.1 µM,[3],59.7%
same,viability at 0.2 µM,[3],74.3%
same,viability at 0.4 µM,[3],67.9%
same,viability at 0.8 µM,[3],70.9%
same,viability at 1.6 µM,[3],75%
same,viability at 3.1 µM,[3],63.5%
same,viability at 6.3 µM,[3],65.8%
same,viability at 12.5 µM,[3],79.4%
same,viability at 25 µM,[3],83.1%
same,viability at 50 µM,[3],5.25%
same,viability at 100 µM,[3],8.49%
FC(F)(F)c1cccc(Nc2nc3ccccc3nc2Nc2cccc(C(F)(F)F)c2)c1 [MMV665794],IC50,[4],> 33.3 µM
same,IC50,"[5]; confluent cells, read-out: Confluent RH (IC50)",0.8 ± 0.15 µM
same,IC50,"[5]; proliferating cells, read-out: Preconfluent RH (IC50)",1.1 ± 0.18 µM
same,IC50,[1],5.8 ± 0.16 µM
same,EC50,"[6]; Echinococcus multilocularis, 120 h",< 5 µM
same,EC50,[6],2.8 ± 0.53 µM
same,IC50,"[7]; confluent cells, read-out: Confluent HFF (IC50)",21.5 ± 0.17 µM
same,IC50,"[7]; proliferating cells, read-out: Preconfluent HFF (IC50)",5.9 ± 0.21 µM
same,IC50,adult worms,1.1 µM
